Results on 1 compound are retold here after ChEMBL document CHEMBL1151250, “A DNA-damaging oxoaporphine alkaloid from Piper caninum” (J Nat Prod, 2004).

What all share (format): functional, organism-based
Test [1] has as its system Saccharomyces cerevisiae. Put plainly: Antimicrobial activity against Saccharomyces cerevisiae RS321NpRAD52 in presence of glucose.
Test [2] relates to Saccharomyces cerevisiae. Put plainly: Antimicrobial activity against Saccharomyces cerevisiae RS321NYCp50 in presence of galactose.
For test [3], the system named is Saccharomyces cerevisiae. Put plainly: Antimicrobial activity against Saccharomyces cerevisiae RS321NpRAD52 in presence of galactose.

The structures appear in SMILES notation.

Regarding `CN1C(=O)C(=O)c2cc3c(c4c2c1cc1ccccc14)OCO3` [CEPHARADIONE A], the IC50 in the test on Saccharomyces cerevisiae [1] amounted to 0.05 µg/mL; in the test on Saccharomyces cerevisiae [2], 0.2 µg/mL; in the test with Saccharomyces cerevisiae [3] it was 115 µg/mL.
